Reference: ChEMBL document CHEMBL1146127, “Aminobenzisoxazoles with biaryl P4 moieties as potent, selective, and orally bioavailable factor Xa inhibitors” (Bioorg Med Chem Lett, 2006)

Tests used:
[1] = in vivo; conditions: dog, iv, 0.4 mg/kg
[2] = in vivo; conditions: dog, iv, 0.4 mg/kg; remark: listed apart in the source
[3] = in vivo; conditions: dog
[4] = in vivo; conditions: dog, po, 0.2 mg/kg

Nc1noc2ccc(-n3nc(C(F)(F)F)cc3C(=O)Nc3ccc(-c4ccccc4CN4CCCC4)cc3F)cc12
clearance [1]: 28.3 mL/min/kg
Vd [2]: 23 L/kg
half-life [3]: 10 h
bioavailability [4]: 64%
